According to patent US7521471B2, “4-cyanopyrazole-3-carboxamide derivatives, preparation and application thereof” (Sanofi-Aventis, priority 2003, dated 2009):

Experiments:
CB1 receptors = molecular target: T1, CB1 receptors (Mus musculus, UniProt P47746); experiment: in vivo test (binding ex vivo) in mice after intravenous and/or oral administration
T1 construct: from tissue
Experimental: The compounds according to the invention were tested in vivo (binding ex vivo) in mice after intravenous and/or oral administration, according to the experimental conditions described by Rinaldi-Carmona et al. (J. Pharmacol. Exp., 1998, 284, 644-650). […] By the oral route, compounds 2, 3, 4, 11 and 12 have an ED50 of between 1 and 20 mg/kg for the CB1 receptors.

[1] = molecular target: CB1 cannabinoid receptors (Homo sapiens, UniProt P21554); settings: cited from earlier work
Sequence of CB1 cannabinoid receptors (P21554 whole entry): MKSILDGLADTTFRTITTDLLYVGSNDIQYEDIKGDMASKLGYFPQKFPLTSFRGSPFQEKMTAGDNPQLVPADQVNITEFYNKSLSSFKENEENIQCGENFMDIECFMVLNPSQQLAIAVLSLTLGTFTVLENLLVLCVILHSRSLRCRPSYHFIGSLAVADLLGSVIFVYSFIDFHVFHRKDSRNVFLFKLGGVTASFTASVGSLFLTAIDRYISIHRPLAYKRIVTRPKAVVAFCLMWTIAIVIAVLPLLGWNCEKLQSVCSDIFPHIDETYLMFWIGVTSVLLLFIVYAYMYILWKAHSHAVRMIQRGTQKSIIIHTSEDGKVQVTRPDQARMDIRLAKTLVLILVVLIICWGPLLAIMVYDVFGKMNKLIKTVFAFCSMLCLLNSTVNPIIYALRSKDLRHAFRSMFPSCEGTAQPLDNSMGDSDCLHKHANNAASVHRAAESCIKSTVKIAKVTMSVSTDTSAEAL

T1 sequence (P47746 whole entry): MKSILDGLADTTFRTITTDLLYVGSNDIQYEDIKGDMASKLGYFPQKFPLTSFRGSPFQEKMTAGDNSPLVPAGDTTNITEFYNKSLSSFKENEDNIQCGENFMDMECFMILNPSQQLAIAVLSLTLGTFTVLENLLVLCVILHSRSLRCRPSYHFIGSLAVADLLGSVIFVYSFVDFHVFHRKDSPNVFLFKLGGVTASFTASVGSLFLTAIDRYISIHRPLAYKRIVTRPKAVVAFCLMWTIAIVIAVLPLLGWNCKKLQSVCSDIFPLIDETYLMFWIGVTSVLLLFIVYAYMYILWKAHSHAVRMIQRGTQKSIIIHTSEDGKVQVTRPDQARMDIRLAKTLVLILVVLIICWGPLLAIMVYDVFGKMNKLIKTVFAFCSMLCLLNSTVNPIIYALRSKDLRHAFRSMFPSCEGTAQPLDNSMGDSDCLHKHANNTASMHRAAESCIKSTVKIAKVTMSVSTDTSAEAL

ED50 (CB1 receptors)	SMILES	properties for the CB1 cannabinoid receptors [1]
1 to 20 mg/kg	CC(C)(C)NC(=O)c1nn(-c2ccc(Cl)cc2Cl)c(-c2ccc(Br)cc2)c1C#N [Compound 12, 5-(4-Bromophenyl)-4-cyano-1-(2,4-dichlorophenyl)-N-tert-butyl-1H-pyrazole-3-carboxamide]	
	COc1ccc(-c2c(C#N)c(C(=O)Nc3ccccc3)nn2-c2ccccc2Cl)cc1 [N-phenyl-1-(2-chlorophenyl)-4-cyano-5-(4-methoxyphenyl)-1H-pyrazole-3-carboxamide]	inverse agonist properties
